We go through six substances from article PMC10122656, “Siglec-6 mediates the uptake of extracellular vesicles through a noncanonical glycolipid binding pocket” (Nature Communications, 2023).

“And” between values parts separate entries of the source, which are not always exact repeats. Identical values can stand only once.

Holding throughout (experiment): Cell assay (liposome/EV binding, flow cytometry)
Type in all cases: cell-based

In one test the target is T1, Siglec-10 WT CHO cells (Homo sapiens, UniProt Q96LC7).
T1 construct: expressed in transfected cells
T1 sequence (Q96LC7 17-697): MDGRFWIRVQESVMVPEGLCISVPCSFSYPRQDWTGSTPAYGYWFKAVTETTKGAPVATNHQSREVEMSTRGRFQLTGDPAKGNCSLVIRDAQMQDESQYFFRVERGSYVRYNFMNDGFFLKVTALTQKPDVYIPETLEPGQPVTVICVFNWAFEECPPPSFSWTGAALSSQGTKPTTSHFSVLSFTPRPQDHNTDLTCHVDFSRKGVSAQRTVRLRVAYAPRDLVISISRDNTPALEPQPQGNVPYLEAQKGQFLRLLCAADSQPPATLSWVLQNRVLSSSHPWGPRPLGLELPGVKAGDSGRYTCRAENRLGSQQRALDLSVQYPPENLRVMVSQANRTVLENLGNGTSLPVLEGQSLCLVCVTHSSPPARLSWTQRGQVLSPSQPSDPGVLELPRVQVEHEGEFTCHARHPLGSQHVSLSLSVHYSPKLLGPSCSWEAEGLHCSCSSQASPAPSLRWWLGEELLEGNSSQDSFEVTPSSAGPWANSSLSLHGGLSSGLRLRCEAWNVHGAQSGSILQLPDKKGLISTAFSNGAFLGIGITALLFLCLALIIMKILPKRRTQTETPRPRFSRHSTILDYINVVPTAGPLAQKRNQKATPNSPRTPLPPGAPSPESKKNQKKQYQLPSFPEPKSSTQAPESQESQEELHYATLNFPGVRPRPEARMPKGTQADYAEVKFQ
The following applies: for log10(MFI AF647) of GLL relative to log10(MFI AF647) of the same GLL against UT CHO cells (Fig. 2a): Sig-10 WT, 3 mol% ganglioside liposomes, replicates. In a few lines:
(§1)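 Binding of AF647-labelled, Siglec ligand-bearing liposomes (130 ± 35 nm) or EVs was measured on transfected CHO cells. Exposure was 50 µM or 50 µg/mL for 30 min at 37 °C; Siglec-positive cells were gated for analysis.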

In test [1] the target is T2, Siglec-15 R143A CHO cells (Homo sapiens, UniProt Q6ZMC9, K274L/R143A).
T2 construct: expressed in transfected cells
T2 sequence (Q6ZMC9 20-328 R143A/K274L): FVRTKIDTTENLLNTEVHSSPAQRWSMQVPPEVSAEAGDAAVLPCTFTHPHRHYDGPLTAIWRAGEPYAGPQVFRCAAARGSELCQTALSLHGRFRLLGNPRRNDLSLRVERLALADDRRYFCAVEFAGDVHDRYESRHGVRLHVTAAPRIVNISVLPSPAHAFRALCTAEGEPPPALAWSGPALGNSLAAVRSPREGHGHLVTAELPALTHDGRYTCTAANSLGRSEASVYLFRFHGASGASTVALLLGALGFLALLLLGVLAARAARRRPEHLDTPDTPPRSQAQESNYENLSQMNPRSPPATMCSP
As to conditions: Sig-15 R143A; 3 mol% ganglioside liposomes; replicates. In a few lines:
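CHO cells expressing the indicated Siglec (wild-type or R-to-A mutant) were incubated 30 min at 37 °C with 50 µM fluorescent DSPC/cholesterol/PEG-DSPE liposomes (~130 nm, Siglec ligand-bearing) or 50 µg/mL EVs in DMEM F12 5% FBS. After washing and anti-Siglec staining on ice, binding was measured by flow cytometry on Siglec-positive gated cells.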

In another test the target is T3, R122A Siglec-6 CHO cells (Homo sapiens, UniProt O43699, R122A).
T3 construct: expressed in transfected cells
T3 sequence (O43699 27-453 R122A): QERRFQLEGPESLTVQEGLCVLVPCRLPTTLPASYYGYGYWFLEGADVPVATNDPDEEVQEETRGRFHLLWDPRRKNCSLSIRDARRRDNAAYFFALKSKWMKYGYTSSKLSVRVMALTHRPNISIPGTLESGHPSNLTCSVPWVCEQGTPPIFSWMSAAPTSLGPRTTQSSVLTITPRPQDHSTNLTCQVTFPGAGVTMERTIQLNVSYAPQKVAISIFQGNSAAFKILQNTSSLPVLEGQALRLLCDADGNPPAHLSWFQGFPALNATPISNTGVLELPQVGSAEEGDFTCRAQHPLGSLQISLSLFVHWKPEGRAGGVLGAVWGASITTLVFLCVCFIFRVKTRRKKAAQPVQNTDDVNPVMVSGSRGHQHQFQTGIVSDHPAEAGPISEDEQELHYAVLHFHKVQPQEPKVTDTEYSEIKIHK
As to conditions: Sig-6 R122A; 3 mol% ganglioside liposomes; replicates. In a few lines: as §1

A further test addresses T4, WT Siglec-6 CHO cells (Homo sapiens, UniProt O43699).
T4 construct: expressed in transfected cells
As to conditions: for Binding of liposomes to WT Siglec-6 CHO cells relative to liposomes formulated without a ligand (Fig. 3c): 3 mol% glycolipid, Cer = native ganglioside, Amide = amide-linked nGL; for Binding of liposomes to WT Siglec-6 CHO cells relative to liposomes formulated without a ligand (Fig. 3c) / log10(MFI AF647) of GLL relative to log10(MFI AF647) of the same GLL against UT CHO cells (Fig. 2a): replicates; for log10(MFI AF647) of GLL relative to log10(MFI AF647) of the same GLL against UT CHO cells (Fig. 2a): Sig-6 WT, 3 mol% ganglioside liposomes; for liposome binding, fluorescence signal (replicates): sheet Figure S17, cells not given, three experiments, each with its own Naked control. In outline: as §1
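Wherever liposome binding, fluorescence signal (replicates) is given: AF647 fluorescence intensity from 0.1 mol% AF647–PEG45–DSPE in liposomes.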

T4 sequence (O43699 27-453): as the sequence (O43699 27-453 R122A) above, with A96R counted along it

Turning to GM1, the “log10(MFI AF647) of GLL relative to log10(MFI AF647) of the same GLL against UT CHO cells (Fig. 2a)” value at Siglec-10 WT CHO cells is 0.32 (2×) and 0.35 and 0.26; in test [1] it was -0.08 and -0.12 (2×) and -0.11; on R122A Siglec-6 CHO cells, 0.91 and 0.89 and 0.86 and 0.85; at WT Siglec-6 CHO cells, 0.96 and 0.93 and 0.94 (2×). In addition, the “GLL binding to Siglec-10 (in words)” value on Siglec-10 WT CHO cells (cell assay, optimized liposomal formulation) is “novel interactions were observed”. The “Binding of liposomes to WT Siglec-6 CHO cells relative to liposomes formulated without a ligand (Fig. 3c)” value on WT Siglec-6 CHO cells (listed as GM1 Cer) is 10 and 9.9 and 11 and 10.2. Also, the “GLL binding to Siglec-6 with increasing ganglioside content (in words)” value at WT Siglec-6 CHO cells (ganglioside titrated in GLLs) is given as “decreased above an optimal ganglioside content”. In addition, on WT Siglec-6 CHO cells, the “liposome binding, fluorescence signal (replicates)” value is 2111 and 2091 and 2310 and 2148.

For GM2, the “log10(MFI AF647) of GLL relative to log10(MFI AF647) of the same GLL against UT CHO cells (Fig. 2a)” value at Siglec-10 WT CHO cells was 0.23 and 0.24 and 0.22 and 0.18; in test [1] it was -0.02 (2×) and -0.04 and -0.03; on R122A Siglec-6 CHO cells, 0.01; at WT Siglec-6 CHO cells, 0.03 (2×) and 0.04 and 0.06.

Turning to GM3, the “log10(MFI AF647) of GLL relative to log10(MFI AF647) of the same GLL against UT CHO cells (Fig. 2a)” value at Siglec-10 WT CHO cells is -0.09 (2×) and -0.02 and -0.08; in test [1], -0.11 (2×) and -0.12 (2×); at R122A Siglec-6 CHO cells it was -0.11 (2×) and -0.14 (2×); at WT Siglec-6 CHO cells, -0.2 (2×) and -0.19 and -0.17. Further, on WT Siglec-6 CHO cells (listed as GM3 Cer), the “Binding of liposomes to WT Siglec-6 CHO cells relative to liposomes formulated without a ligand (Fig. 3c)” value was 0.344 and 0.335 and 0.365 and 0.403. Moreover, on WT Siglec-6 CHO cells, the “liposome binding, fluorescence signal (replicates)” value was 274 and 267 and 291 and 321.

GM4: the “log10(MFI AF647) of GLL relative to log10(MFI AF647) of the same GLL against UT CHO cells (Fig. 2a)” value was 0.2 and 0.21 (3×) on Siglec-10 WT CHO cells; -0.08 and -0.09 and -0.11 and -0.1 in test [1]; 0 on R122A Siglec-6 CHO cells; 0.02 (2×) and 0.05 and 0.04 at WT Siglec-6 CHO cells.

Regarding GQ1b, the “log10(MFI AF647) of GLL relative to log10(MFI AF647) of the same GLL against UT CHO cells (Fig. 2a)” value on Siglec-10 WT CHO cells is 0.23 and 0.24 and 0.22 and 0.21; in test [1], -0.11 (2×) and -0.12 and -0.08; at R122A Siglec-6 CHO cells, 0.46 and 0.48 and 0.4 and 0.42; on WT Siglec-6 CHO cells, 0.57 and 0.55 and 0.54 and 0.56.

Turning to GT1b, the “log10(MFI AF647) of GLL relative to log10(MFI AF647) of the same GLL against UT CHO cells (Fig. 2a)” value at Siglec-10 WT CHO cells was 0.42 (2×) and 0.4 and 0.39; in test [1], -0.03 and -0.06 and -0.05 (2×); at R122A Siglec-6 CHO cells it was 0.72 and 0.7 and 0.61 and 0.69; on WT Siglec-6 CHO cells, 0.81 and 0.79 and 0.8 (2×).
